Source: ChEMBL document CHEMBL3885881, “DrugMatrix”

Species: Rattus norvegicus
Experiment: DrugMatrix - Regimen: Daily Repeat
Assay type: toxicity, organism-based, Sprague-Dawley
Set-up: regimen Daily Repeat, gender Male, age 6-8 weeks
Conditions: in vivo, po, route oral GAVAGE, vehicle .5 % CMC; for ABSOLUTE BASOPHIL / ABSOLUTE EOSINOPHIL / ABSOLUTE LYMPHOCYTE / ABSOLUTE MONOCYTE / ABSOLUTE SEGMENTED NEUTROPHIL / BASOPHIL / EOSINOPHIL / HEMATOCRIT / LEUKOCYTE COUNT / LYMPHOCYTE / MEAN CORPUSCULAR HEMOGLOBIN / MEAN CORPUSCULAR HEMOGLOBIN CONCENTRATION / MEAN CORPUSCULAR VOLUME / MONOCYTE / NEUTROPHIL / NUCLEATED RED BLOOD CELLS / PLATELET COUNT: tissue Blood; for ALANINE AMINOTRANSFERASE / ALBUMIN / ALKALINE PHOSPHATASE / ASPARTATE AMINOTRANSFERASE / BLOOD UREA NITROGEN / CARBON DIOXIDE / CHLORIDE / CHOLESTEROL / CREATININE / GLUCOSE / LACTATE DEHYDROGENASE / LIPASE / PHOSPHORUS / SODIUM / TOTAL BILIRUBIN / TOTAL PROTEIN / URIC ACID: tissue Plasma
[1] = 23 mg/kg, 120 h, dose level High, time 5 day
[2] = […], 72 h, dose 2.5 mg/Kg, dose level Low, time 3 day
[3] = […], 120 h, dose 2.5 mg/Kg, dose level Low, time 5 day

Question: `Cc1cc2c(s1)Nc1ccccc1N=C2N1CCN(C)CC1` [OLANZAPINE] was tested. Which “ABSOLUTE BASOPHIL” value [1] did it give?
Answer: 0 CELLS/uL

Question: What about the “ABSOLUTE EOSINOPHIL” value [1] of the same compound?
Answer: 52 CELLS/uL

Question: What about the “ABSOLUTE LYMPHOCYTE” value [1] of the same compound?
Answer: 13243.33 CELLS/uL

Question: What about the “ABSOLUTE MONOCYTE” value [1] of the same compound?
Answer: 98.33 CELLS/uL

Question: And the “ABSOLUTE SEGMENTED NEUTROPHIL” value [1]?
Answer: 1106.33 CELLS/uL

Question: And the BASOPHIL [1]?
Answer: 0%

Question: And the EOSINOPHIL [1]?
Answer: 0.33%

Question: And the HEMATOCRIT [1]?
Answer: 38.23%

Question: And the “LEUKOCYTE COUNT” value [1]?
Answer: 14.5 x10E3/uL

Question: And the LYMPHOCYTE [1]?
Answer: 91.33%

Question: What about the “MEAN CORPUSCULAR HEMOGLOBIN” value [1] of the same compound?
Answer: 24.67 pg

Question: And the “MEAN CORPUSCULAR HEMOGLOBIN CONCENTRATION” value [1]?
Answer: 39.5 G/DL

Question: What about the “MEAN CORPUSCULAR VOLUME” value [1] of the same compound?
Answer: 62.5 fL

Question: What about the MONOCYTE [1] of the same compound?
Answer: 0.67%

Question: What about the NEUTROPHIL [1] of the same compound?
Answer: 7.67%

Question: What about the “NUCLEATED RED BLOOD CELLS” value [1] of the same compound?
Answer: 0 /100WBC

Question: And the “PLATELET COUNT” value [1]?
Answer: 1008.67 x10E3/uL

Question: What about the “ALANINE AMINOTRANSFERASE” value [1] of the same compound?
Answer: 50 u/L

Question: What about the ALBUMIN [1] of the same compound?
Answer: 4.4 G/DL

Question: And the “ALKALINE PHOSPHATASE” value [1]?
Answer: 282.67 u/L

Question: What about the “ASPARTATE AMINOTRANSFERASE” value [1] of the same compound?
Answer: 108.67 u/L

Question: What about the “BLOOD UREA NITROGEN” value [1] of the same compound?
Answer: 22.33 mg/dL

Question: And the “CARBON DIOXIDE” value [1]?
Answer: 27.33 mmol/L

Question: What about the CHLORIDE [1] of the same compound?
Answer: 104.33 MEQ/L

Question: What about the CHOLESTEROL [1] of the same compound?
Answer: 78.33 mg/dL

Question: And the CREATININE [1]?
Answer: 0.26 mg/dL

Question: And the GLUCOSE [1]?
Answer: 150.33 mg/dL

Question: And the “LACTATE DEHYDROGENASE” value [1]?
Answer: 306 u/L

Question: And the LIPASE [1]?
Answer: 9.33 u/L

Question: What about the PHOSPHORUS [1] of the same compound?
Answer: 11.63 mg/dL

Question: And the SODIUM [1]?
Answer: 146.17 MEQ/L

Question: And the “TOTAL BILIRUBIN” value [1]?
Answer: 0.27 mg/dL

Question: What about the “TOTAL PROTEIN” value [1] of the same compound?
Answer: 6.1 G/DL

Question: What about the “URIC ACID” value [1] of the same compound?
Answer: 1.4 mg/dL

Question: And the “ABSOLUTE BASOPHIL” value [2]?
Answer: 0 CELLS/uL

Question: What about the “ABSOLUTE EOSINOPHIL” value [2] of the same compound?
Answer: 116 CELLS/uL

Question: What about the “ABSOLUTE LYMPHOCYTE” value [2] of the same compound?
Answer: 13788.67 CELLS/uL

Question: And the “ABSOLUTE MONOCYTE” value [2]?
Answer: 239.33 CELLS/uL

Question: And the “ABSOLUTE SEGMENTED NEUTROPHIL” value [2]?
Answer: 1189.33 CELLS/uL

Question: What about the BASOPHIL [2] of the same compound?
Answer: 0%

Question: What about the EOSINOPHIL [2] of the same compound?
Answer: 1%

Question: And the HEMATOCRIT [2]?
Answer: 35.03%

Question: And the “LEUKOCYTE COUNT” value [2]?
Answer: 15.33 x10E3/uL

Question: And the LYMPHOCYTE [2]?
Answer: 90%

Question: What about the “MEAN CORPUSCULAR HEMOGLOBIN” value [2] of the same compound?
Answer: 24.27 pg

Question: And the “MEAN CORPUSCULAR HEMOGLOBIN CONCENTRATION” value [2]?
Answer: 38.63 G/DL

Question: And the “MEAN CORPUSCULAR VOLUME” value [2]?
Answer: 62.87 fL

Question: And the MONOCYTE [2]?
Answer: 1.67%

Question: And the NEUTROPHIL [2]?
Answer: 7.33%

Question: And the “NUCLEATED RED BLOOD CELLS” value [2]?
Answer: 0 /100WBC

Question: And the “PLATELET COUNT” value [2]?
Answer: 1228.33 x10E3/uL

Question: What about the “ALANINE AMINOTRANSFERASE” value [2] of the same compound?
Answer: 53.33 u/L

Question: And the ALBUMIN [2]?
Answer: 4.17 G/DL

Question: What about the “ALKALINE PHOSPHATASE” value [2] of the same compound?
Answer: 352.67 u/L

Question: What about the “ASPARTATE AMINOTRANSFERASE” value [2] of the same compound?
Answer: 94.33 u/L

Question: What about the “BLOOD UREA NITROGEN” value [2] of the same compound?
Answer: 18 mg/dL

Question: What about the “CARBON DIOXIDE” value [2] of the same compound?
Answer: 26.67 mmol/L

Question: What about the CHLORIDE [2] of the same compound?
Answer: 101 MEQ/L

Question: And the CHOLESTEROL [2]?
Answer: 73.67 mg/dL

Question: And the CREATININE [2]?
Answer: 0.19 mg/dL

Question: What about the GLUCOSE [2] of the same compound?
Answer: 159.67 mg/dL

Question: What about the “LACTATE DEHYDROGENASE” value [2] of the same compound?
Answer: 472.67 u/L

Question: What about the LIPASE [2] of the same compound?
Answer: 10.33 u/L

Question: And the PHOSPHORUS [2]?
Answer: 12.4 mg/dL

Question: And the SODIUM [2]?
Answer: 143.67 MEQ/L

Question: What about the “TOTAL BILIRUBIN” value [2] of the same compound?
Answer: 0.23 mg/dL

Question: And the “TOTAL PROTEIN” value [2]?
Answer: 5.97 G/DL

Question: What about the “URIC ACID” value [2] of the same compound?
Answer: 1.73 mg/dL

Question: And the “ABSOLUTE BASOPHIL” value [3]?
Answer: 0 CELLS/uL

Question: What about the “ABSOLUTE EOSINOPHIL” value [3] of the same compound?
Answer: 0 CELLS/uL

Question: What about the “ABSOLUTE LYMPHOCYTE” value [3] of the same compound?
Answer: 12300.67 CELLS/uL

Question: And the “ABSOLUTE MONOCYTE” value [3]?
Answer: 35.33 CELLS/uL

Question: And the “ABSOLUTE SEGMENTED NEUTROPHIL” value [3]?
Answer: 2030.67 CELLS/uL

Question: What about the BASOPHIL [3] of the same compound?
Answer: 0%

Question: What about the EOSINOPHIL [3] of the same compound?
Answer: 0%

Question: What about the HEMATOCRIT [3] of the same compound?
Answer: 34.77%

Question: And the “LEUKOCYTE COUNT” value [3]?
Answer: 14.37 x10E3/uL

Question: And the LYMPHOCYTE [3]?
Answer: 84.67%

Question: What about the “MEAN CORPUSCULAR HEMOGLOBIN” value [3] of the same compound?
Answer: 25.5 pg

Question: And the “MEAN CORPUSCULAR HEMOGLOBIN CONCENTRATION” value [3]?
Answer: 40.57 G/DL

Question: And the “MEAN CORPUSCULAR VOLUME” value [3]?
Answer: 62.8 fL

Question: What about the MONOCYTE [3] of the same compound?
Answer: 0.33%

Question: What about the NEUTROPHIL [3] of the same compound?
Answer: 15%

Question: And the “NUCLEATED RED BLOOD CELLS” value [3]?
Answer: 0 /100WBC

Question: And the “PLATELET COUNT” value [3]?
Answer: 1181 x10E3/uL

Question: What about the “ALANINE AMINOTRANSFERASE” value [3] of the same compound?
Answer: 50.67 u/L

Question: And the ALBUMIN [3]?
Answer: 4.2 G/DL

Question: What about the “ALKALINE PHOSPHATASE” value [3] of the same compound?
Answer: 327.67 u/L

Question: What about the “ASPARTATE AMINOTRANSFERASE” value [3] of the same compound?
Answer: 96.67 u/L

Question: And the “BLOOD UREA NITROGEN” value [3]?
Answer: 18.67 mg/dL

Question: What about the “CARBON DIOXIDE” value [3] of the same compound?
Answer: 24.67 mmol/L

Question: What about the CHLORIDE [3] of the same compound?
Answer: 101 MEQ/L

Question: And the CHOLESTEROL [3]?
Answer: 82 mg/dL

Question: What about the CREATININE [3] of the same compound?
Answer: 0.23 mg/dL

Question: What about the GLUCOSE [3] of the same compound?
Answer: 160.67 mg/dL

Question: And the “LACTATE DEHYDROGENASE” value [3]?
Answer: 448.33 u/L

Question: And the LIPASE [3]?
Answer: 9.67 u/L

Question: And the PHOSPHORUS [3]?
Answer: 12.83 mg/dL

Question: What about the SODIUM [3] of the same compound?
Answer: 144.87 MEQ/L

Question: And the “TOTAL BILIRUBIN” value [3]?
Answer: 0.27 mg/dL

Question: What about the “TOTAL PROTEIN” value [3] of the same compound?
Answer: 5.9 G/DL

Question: What about the “URIC ACID” value [3] of the same compound?
Answer: 1.7 mg/dL
